In brackets after ≈: the same amount, converted by molar mass.
Columns and labels:
[1] = test system: Staphylococcus aureus; test: Antibacterial activity against methicillin-resistant Staphylococcus aureus ATCC 33592 after 24 hrs by serial dilution method; type: functional; settings: ATCC 33592, 24 h
[2] = test system: Enterococcus faecium; test: Antibacterial activity against vancomycin-resistant Enterococcus faecium ATCC 700221 after 24 hrs by serial dilution method; type: functional; settings: ATCC 700221, 24 h
[3] = test system: K562; test: Growth inhibition of human K562 cells assessed as cell growth at 10^-5 M incubated for 48 hrs by sulforhodamine B assay relative to control; type: cell-based; set-up: scale not given: the % may be the effect or the level left; settings: k562, 48 h, 10 µM
[4] = test system: SF-295; test: Growth inhibition of human SF295 cells assessed as cell growth at 10^-5 M incubated for 48 hrs by sulforhodamine B assay relative to control; type: cell-based; set-up: scale not given: the % may be the effect or the level left; settings: sf-295, 48 h, 10 µM
[5] = test system: IGROV-1; test: Growth inhibition of human IGROV1 cells assessed as cell growth at 10^-5 M incubated for 48 hrs by sulforhodamine B assay relative to control; type: cell-based; set-up: scale not given: the % may be the effect or the level left; settings: igrov-1, 48 h, 10 µM
[6] = test system: 786-0; test: Growth inhibition of human 786-0 cells assessed as cell growth at 10^-5 M incubated for 48 hrs by sulforhodamine B assay relative to control; type: cell-based; set-up: scale not given: the % may be the effect or the level left; settings: 786-0, 48 h, 10 µM
[7] = test system: UO-31; test: Growth inhibition of human UO31 cells assessed as cell growth at 10^-5 M incubated for 48 hrs by sulforhodamine B assay relative to control; type: cell-based; set-up: scale not given: the % may be the effect or the level left; settings: uo-31, 48 h, 10 µM
[8] = test system: DU-145; test: Growth inhibition of human DU145 cells assessed as cell growth at 10^-5 M incubated for 48 hrs by sulforhodamine B assay relative to control; type: cell-based; set-up: scale not given: the % may be the effect or the level left; settings: du-145, 48 h, 10 µM
[9] = test system: Aspergillus fumigatus; test: Potency index, ratio of amphotericin B MIC to compound MIC for antifungal activity against Aspergillus fumigatus RCMB 02568; type: functional
[10] = test system: Aspergillus fumigatus; test: Potency index, ratio of amphotericin B MIC to compound MIC for Aspergillus fumigatus RCMB 02568; type: functional
[11] = Stability in mouse RAW264.7 cells measured after 48 hrs; type: ADME, cell-based; settings: raw264.7, 48 h

SMILES | MIC [1] [µg/mL] | MIC [2] [µg/mL] | Activity [3] [%] | Activity [4] [%] | Activity [5] [%] | Activity [6] [%] | Activity [7] [%] | Activity [8] [%] | Ratio [9] | Ratio [10] | Stability [11]
CC(=O)c1sc(/N=C2\NC(=O)/C(=C3/C(=O)N(C)c4ccc(Cl)cc43)S2)nc1C | 3.9 (≈ 9.01 µM) | 7.81 (≈ 18 µM) | 100.75 | 101.25 | 94.36 | 106.86 | 90.16 | 100.78 | 2 | 2 | Stable
CCOC(=O)c1sc(/N=C2\NC(=O)/C(=C3/C(=O)N(Cc4ccccc4)c4ccc(Cl)cc43)S2)nc1C |  |  | 101.93 | 103.03 | 105.63 | 103.02 | 91.72 | 104.75 |  |  | Stable

Reference: ChEMBL document CHEMBL4308854, “Novel indole-thiazolidinone conjugates: Design, synthesis and whole-cell phenotypic evaluation as a novel class of antimicrobial agents” (Eur J Med Chem, 2018)
